This passage reports IC50 results from US20130040935A1, “CYCLIC KETO-ENOLS FOR THERAPY” (BAYER INTELLECTUAL PROPERTY GMBH, priority 2010, published 2013).

The target in assay [1] is human ACC2 (acetyl-coenzyme A carboxylase 2) (Homo sapiens, UniProt O00763). The assay is described as follows: Human ACC2 enzyme assay, Assay B2 (ADP-Glo). (In ADP-Glo the light output rises with the ADP produced.);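 also: human ACC2 activity read as ADP product, detected by luciferase glow luminescence after residual ATP removal, enzyme near 2 ng/µl in linear range, detection steps at 22 °C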
The target in assay [2] is acetyl-CoA carboxylase 2 (ACC2) (Homo sapiens, UniProt O00763). The assay is described as follows: Human ACC2 enzyme assay, Assay A2 (HTRF ADP immunoassay). (In general: Time-resolved FRET reads energy transfer from a long-lived donor to a nearby acceptor.);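 also: ADP generated by ACC2 quantified via competitive time-resolved FRET between europium cryptate anti-ADP antibody and d2-tagged ADP, enzyme kept in linear range near 0.6 ng/µl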
Description: The inhibitory activity of the substances of this invention with regard to acetyl-CoA carboxylase 2 (ACC2) was measured using the ACC2 assay described in the paragraphs below. The basic principle of the assay is the measurement of adenosine diphosphate (ADP), which is formed as a by-product, by means of an HTRF®-based competitive immunoassay (HTRF=Homogeneous Time Resolved Fluorescence).
The amount of complex of d2-labelled ADP and europium cryptate-labelled anti-ADP antibody was then determined by measuring the resonance energy transfer of europium cryptate to d2.
Assay [3] concerns the target T1, human ACC1 (acetyl-coenzyme A carboxylase alpha transcript variant 1) (Homo sapiens, UniProt Q13085).
T1 construct: FLAG (C); made in house; host or cells: baculovirus-infected insect cells (Hi5)
The assay is described as follows: Human ACC1 enzyme assay, Assay B1 (ADP-Glo). It counts as biochemical.

Another assay has as its system MCF7. The assay is described as follows: Cell proliferation assay (CellTiter-Glo, 96 h), MCF7. It counts as cell-based. Conditions: Homo sapiens. In a few lines:
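CellTiter-Glo luminescence measured at t=0 (after overnight attachment) and after 96 h compound exposure at 37° C. Growth inhibition in percent calculated from t=0-corrected signals of treated versus untreated wells. Seeding density 2000-5000 cells/well, line-dependent.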
For orientation: Cellular ATP, detected with luciferase, serves as a proxy for viable cell number.

A further assay deals with recombinant human ACC1 (Homo sapiens, UniProt Q13085). The assay is described as follows: Human ACC1 enzyme assay, Assay A1 (HTRF ADP immunoassay).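 Also: ADP generated by the enzyme quantified via competitive time-resolved FRET, read as europium cryptate to d2 energy transfer after 1 h at 22 °C with labelled ADP tracer and anti-ADP antibody.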
[4] abbreviates: MCF7, Table 7, 96-hour incubation.
Where [5] appears, read: Assay B1, read-out: ACC 1 (=B1) IC50.

Where two headings read alike, the source gives them in different places.

Sequence of acetyl-CoA carboxylase 2 (ACC2) (O00763 39-2458 limits assumed): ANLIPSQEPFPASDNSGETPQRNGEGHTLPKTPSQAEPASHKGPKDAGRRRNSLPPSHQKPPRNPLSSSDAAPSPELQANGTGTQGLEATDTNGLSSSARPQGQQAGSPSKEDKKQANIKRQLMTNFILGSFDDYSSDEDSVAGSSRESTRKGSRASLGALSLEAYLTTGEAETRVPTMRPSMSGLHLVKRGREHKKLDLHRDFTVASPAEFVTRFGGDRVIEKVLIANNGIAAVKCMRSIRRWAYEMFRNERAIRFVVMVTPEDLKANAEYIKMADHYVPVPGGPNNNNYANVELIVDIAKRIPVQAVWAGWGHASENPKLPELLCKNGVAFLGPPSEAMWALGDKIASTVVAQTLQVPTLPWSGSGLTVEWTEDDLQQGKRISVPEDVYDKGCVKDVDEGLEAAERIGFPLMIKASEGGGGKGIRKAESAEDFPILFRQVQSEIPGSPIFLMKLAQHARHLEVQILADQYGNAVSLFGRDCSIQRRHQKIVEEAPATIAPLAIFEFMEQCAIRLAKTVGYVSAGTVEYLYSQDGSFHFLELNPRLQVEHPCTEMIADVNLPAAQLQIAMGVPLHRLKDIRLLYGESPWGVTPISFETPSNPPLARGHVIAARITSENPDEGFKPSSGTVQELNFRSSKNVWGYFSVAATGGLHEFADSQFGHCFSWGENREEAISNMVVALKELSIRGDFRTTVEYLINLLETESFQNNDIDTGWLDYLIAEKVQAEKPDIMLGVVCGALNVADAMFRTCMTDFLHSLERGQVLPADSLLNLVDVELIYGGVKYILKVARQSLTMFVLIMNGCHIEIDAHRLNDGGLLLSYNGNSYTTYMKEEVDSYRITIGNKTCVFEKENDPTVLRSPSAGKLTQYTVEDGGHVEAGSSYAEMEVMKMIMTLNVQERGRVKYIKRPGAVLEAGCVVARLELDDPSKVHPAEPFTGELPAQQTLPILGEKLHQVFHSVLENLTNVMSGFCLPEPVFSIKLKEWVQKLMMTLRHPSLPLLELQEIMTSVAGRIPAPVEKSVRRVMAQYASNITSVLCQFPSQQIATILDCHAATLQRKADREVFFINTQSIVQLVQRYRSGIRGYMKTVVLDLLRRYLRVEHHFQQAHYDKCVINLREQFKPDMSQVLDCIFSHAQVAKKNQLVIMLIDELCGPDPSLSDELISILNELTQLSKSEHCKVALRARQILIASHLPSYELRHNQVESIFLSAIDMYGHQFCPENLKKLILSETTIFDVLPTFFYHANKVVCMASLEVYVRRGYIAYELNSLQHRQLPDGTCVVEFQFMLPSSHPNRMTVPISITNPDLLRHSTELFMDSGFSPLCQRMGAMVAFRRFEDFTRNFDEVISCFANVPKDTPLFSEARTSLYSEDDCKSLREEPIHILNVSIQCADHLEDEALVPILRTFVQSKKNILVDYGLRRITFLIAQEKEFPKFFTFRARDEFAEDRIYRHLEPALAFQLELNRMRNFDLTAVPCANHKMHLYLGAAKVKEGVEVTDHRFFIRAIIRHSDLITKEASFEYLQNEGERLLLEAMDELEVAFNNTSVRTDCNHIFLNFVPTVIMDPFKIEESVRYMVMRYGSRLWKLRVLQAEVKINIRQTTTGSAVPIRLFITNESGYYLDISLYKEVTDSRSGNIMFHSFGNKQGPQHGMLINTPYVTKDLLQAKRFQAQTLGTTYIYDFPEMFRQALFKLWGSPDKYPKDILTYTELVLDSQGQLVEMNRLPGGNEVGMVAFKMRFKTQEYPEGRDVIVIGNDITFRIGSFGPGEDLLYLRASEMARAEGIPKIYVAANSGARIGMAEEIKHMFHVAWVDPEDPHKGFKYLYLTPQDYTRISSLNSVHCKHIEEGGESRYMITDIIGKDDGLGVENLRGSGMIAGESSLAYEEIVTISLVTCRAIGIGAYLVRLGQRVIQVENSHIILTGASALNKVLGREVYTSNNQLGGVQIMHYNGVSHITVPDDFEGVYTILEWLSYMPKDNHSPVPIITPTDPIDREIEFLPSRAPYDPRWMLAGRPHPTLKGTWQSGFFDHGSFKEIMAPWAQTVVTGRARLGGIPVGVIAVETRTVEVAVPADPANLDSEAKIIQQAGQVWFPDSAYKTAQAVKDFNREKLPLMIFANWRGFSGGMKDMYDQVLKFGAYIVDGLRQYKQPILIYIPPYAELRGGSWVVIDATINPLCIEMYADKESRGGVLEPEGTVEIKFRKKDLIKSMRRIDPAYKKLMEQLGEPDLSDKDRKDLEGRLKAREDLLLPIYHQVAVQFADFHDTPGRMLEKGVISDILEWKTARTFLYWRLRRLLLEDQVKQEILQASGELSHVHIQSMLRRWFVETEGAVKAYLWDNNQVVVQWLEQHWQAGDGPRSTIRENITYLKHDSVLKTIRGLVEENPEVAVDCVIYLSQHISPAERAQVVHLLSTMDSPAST
Sequence of human ACC2 (acetyl-coenzyme A carboxylase 2) (O00763 27-2458 limits assumed): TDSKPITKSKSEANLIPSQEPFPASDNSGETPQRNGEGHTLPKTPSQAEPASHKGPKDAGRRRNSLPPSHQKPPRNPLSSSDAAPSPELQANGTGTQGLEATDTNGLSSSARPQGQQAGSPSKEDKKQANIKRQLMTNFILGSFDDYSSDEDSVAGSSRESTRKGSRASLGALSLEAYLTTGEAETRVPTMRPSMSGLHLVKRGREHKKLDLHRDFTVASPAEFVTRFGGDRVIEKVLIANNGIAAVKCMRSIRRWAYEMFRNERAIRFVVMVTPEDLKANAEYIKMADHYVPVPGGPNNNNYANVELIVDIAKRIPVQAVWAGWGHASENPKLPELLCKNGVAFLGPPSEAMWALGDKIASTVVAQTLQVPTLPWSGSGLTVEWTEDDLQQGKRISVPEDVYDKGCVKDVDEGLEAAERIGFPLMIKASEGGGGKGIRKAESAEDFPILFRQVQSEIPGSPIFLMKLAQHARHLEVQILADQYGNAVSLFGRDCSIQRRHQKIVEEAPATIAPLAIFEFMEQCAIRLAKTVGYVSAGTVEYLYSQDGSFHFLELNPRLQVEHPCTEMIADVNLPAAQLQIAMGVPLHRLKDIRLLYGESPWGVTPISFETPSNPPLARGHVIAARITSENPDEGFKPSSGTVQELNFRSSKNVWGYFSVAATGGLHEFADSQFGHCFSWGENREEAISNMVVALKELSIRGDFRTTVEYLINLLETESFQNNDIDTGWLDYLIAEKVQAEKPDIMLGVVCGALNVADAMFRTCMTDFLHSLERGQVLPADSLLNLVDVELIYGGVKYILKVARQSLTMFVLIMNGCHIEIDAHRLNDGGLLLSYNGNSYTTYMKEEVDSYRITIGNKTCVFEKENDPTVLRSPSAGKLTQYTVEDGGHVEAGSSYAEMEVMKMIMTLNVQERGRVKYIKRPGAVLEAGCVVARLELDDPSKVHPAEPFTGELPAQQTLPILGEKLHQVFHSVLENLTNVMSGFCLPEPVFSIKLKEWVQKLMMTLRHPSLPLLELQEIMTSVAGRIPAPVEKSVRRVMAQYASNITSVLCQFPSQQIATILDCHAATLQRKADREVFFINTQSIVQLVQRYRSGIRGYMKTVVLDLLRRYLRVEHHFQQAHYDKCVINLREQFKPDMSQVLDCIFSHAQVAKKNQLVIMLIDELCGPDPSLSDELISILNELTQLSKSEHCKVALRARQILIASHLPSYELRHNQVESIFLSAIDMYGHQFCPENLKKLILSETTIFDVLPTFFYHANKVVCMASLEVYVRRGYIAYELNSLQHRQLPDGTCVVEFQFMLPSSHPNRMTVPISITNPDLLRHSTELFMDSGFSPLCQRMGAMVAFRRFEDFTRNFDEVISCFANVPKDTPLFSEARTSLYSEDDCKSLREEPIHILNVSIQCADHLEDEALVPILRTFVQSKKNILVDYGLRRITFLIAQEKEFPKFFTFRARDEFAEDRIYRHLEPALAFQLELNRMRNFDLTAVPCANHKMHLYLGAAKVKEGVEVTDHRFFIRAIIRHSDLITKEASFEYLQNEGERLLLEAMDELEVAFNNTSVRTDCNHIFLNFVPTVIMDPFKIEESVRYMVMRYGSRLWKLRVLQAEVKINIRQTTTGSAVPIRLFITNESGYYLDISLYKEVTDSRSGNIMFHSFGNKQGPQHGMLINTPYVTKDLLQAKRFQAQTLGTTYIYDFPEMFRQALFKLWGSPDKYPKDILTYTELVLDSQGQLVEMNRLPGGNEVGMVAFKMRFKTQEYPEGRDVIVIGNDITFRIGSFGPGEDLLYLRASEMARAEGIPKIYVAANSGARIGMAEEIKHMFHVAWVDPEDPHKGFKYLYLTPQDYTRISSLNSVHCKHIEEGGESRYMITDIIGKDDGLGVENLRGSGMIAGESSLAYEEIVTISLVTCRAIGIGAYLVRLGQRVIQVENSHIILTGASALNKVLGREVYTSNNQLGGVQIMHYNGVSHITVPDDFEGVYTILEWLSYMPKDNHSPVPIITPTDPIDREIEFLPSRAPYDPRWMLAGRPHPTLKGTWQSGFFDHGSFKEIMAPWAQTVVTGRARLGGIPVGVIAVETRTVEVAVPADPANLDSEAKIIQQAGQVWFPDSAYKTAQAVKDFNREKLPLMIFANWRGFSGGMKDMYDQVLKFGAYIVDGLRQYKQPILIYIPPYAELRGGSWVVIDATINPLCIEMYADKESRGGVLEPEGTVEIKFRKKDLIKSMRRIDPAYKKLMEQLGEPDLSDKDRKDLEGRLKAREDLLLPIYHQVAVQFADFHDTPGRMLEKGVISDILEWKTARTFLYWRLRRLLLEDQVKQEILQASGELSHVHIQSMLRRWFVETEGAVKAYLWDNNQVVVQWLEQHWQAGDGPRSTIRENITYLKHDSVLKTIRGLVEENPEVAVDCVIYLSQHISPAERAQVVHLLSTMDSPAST
Description for recombinant human ACC1: The inhibitory activity of the substances of this invention with regard to acetyl-CoA carboxylase 1 (ACC1) was measured using the ACC1 assay described in the paragraphs below. The basic principle of the assay is the measurement of adenosine diphosphate (ADP), which is formed as a by-product, by means of an HTRF®-based competitive immunoassay (HTRF=Homogeneous Time Resolved Fluorescence).
Typical concentrations were in the range of 2.5 ng/μl.
The amount of complex between d2-labelled ADP and europium cryptate-labelled anti-ADP antibody was then determined by measuring the resonance energy transfer from the europium cryptate to d2.

A word on the IC50: it is the concentration at which inhibition is half-maximal. As for `CO[C@H]1CC[C@]2(CC1)NC(=O)C(c1cc(-c3ccc(Cl)cc3)c(C)cc1C)=C2O` [1-132, (5s,8s)-3-(4′-Chloro-4,6-dimethylbiphenyl-3-yl)-4-hydroxy-8-methoxy-1-azaspiro[4.5]dec-3-en-2-one], the half-inhibitory concentration (IC50) in assay [1] was determined as 234 nM; in assay [2], 106 nM; in assay [3], 912 nM; in the assay with MCF7 (setting [4]), 70 nM; at recombinant human ACC1, 1710 nM.

With `CC1(C)CCC2(CC1)NC(=O)C(c1cc(-c3ccc(Cl)cc3)ccc1Cl)=C2O` [1-138, 3-(4,4′-Dichlorobiphenyl-3-yl)-4-hydroxy-8,8-dimethyl-1-azaspiro[4.5]dec-3-en-2-one], the IC50 is 2190 nM in assay [1]; 633 nM in assay [2]; 172 nM in assay [3]; 54 nM with MCF7 (setting [4]); 262 nM on recombinant human ACC1.

In the case of `COC[C@H]1CC[C@]2(CC1)NC(=O)C(c1cc(-c3ccc(Cl)cc3)ccc1C)=C2O` [1-116, (5s,8s)-3-(4′-Chloro-4 methylbiphenyl-3-yl)-4-hydroxy-8-(methoxymethyl)-1-azaspiro[4.5]dec-3-en-2-one], the concentration for half-maximal inhibition (IC50) in assay [1] was determined as 591 nM; in assay [2], 280 nM; in assay [3] (setting [5]) it was 92 nM; with MCF7 (setting [4]), 31 nM; at recombinant human ACC1 it was 232 nM.

With `O=C1NC2(CCCCC2)C(O)=C1c1cc(-c2ccc(Cl)cc2)ccc1Cl` [1-140, 3-(4,4′-Dichlorobiphenyl-3-yl)-4-hydroxy-1-azaspiro[4.5]dec-3-en-2-one], the results for the 50% inhibitory concentration (IC50) (in assay [2]; with MCF7 (setting [4]); on recombinant human ACC1) were 1520 nM, 73 nM and 323 nM, respectively.

Regarding `CO[C@H]1CC[C@]2(CC1)NC(=O)C(c1cc(-c3ccc(F)c(F)c3)cc(F)c1C)=C2O` [1-107, (5s,8s)-4-Hydroxy-8-methoxy-3-(3′,4′,5-trifluoro-4-methylbiphenyl-3-yl)-1-azaspiro[4.5]dec-3-en 2-one], the IC50 is more than 20000 nM in assay [1]; more than 20000 nM in assay [2]; 376 nM in assay [3]; 267 nM with MCF7 (setting [4]); 804 nM on recombinant human ACC1.

For the compound `Cc1ccc(-c2ccc(Cl)cc2)c(C)c1C1=C(O)[C@]2(CC[C@H](C(F)(F)F)CC2)NC1=O` [1-95, (5s,8s)-3-(4′-Chloro-2,4-dimethylbiphenyl-3-yl)-4-hydroxy-8-(trifluoromethyl)-1-azaspiro[4.5]dec-3-en-2-one], the IC50 in assay [1] is 2410 nM; in assay [2] it was 393 nM; in assay [3] (setting [5]), 383 nM; with MCF7 (setting [4]), 88 nM; at recombinant human ACC1, 378 nM.

On to `Cc1ccc(-c2ccc(Cl)cc2)cc1C1=C(O)[C@]2(CC[C@](O)(C(F)(F)F)CC2)NC1=O` [1-122, (5r,8r)-3-(4′-Chloro-4-methylbiphenyl-3-yl)-4,8-dihydroxy-8-(trifluoromethyl)-1-azaspiro[4.5]dec-3-en-2-one], for which the IC50 stood at 6590 nM in assay [1]; 5420 nM in assay [2]; 124 nM in assay [3] (setting [5]); 288 nM in the assay with MCF7 (setting [4]); 98 nM at recombinant human ACC1.

Turning to `Cc1cc(F)c(-c2ccc(Cl)c(F)c2)cc1C1=C(O)C2(CCC(C(F)(F)F)CC2)NC1=O` (mixture of isomers) [1-94, 3-(4′-Chloro-3′,6-difluoro-4-methylbiphenyl-3-yl)-4-hydroxy-8-(trifluoromethyl)-1-azaspiro[4.5]dec-3-en-2-one], the IC50 turned out to be 2030 nM in assay [1]; 873 nM in assay [2]; 99 nM in assay [3] (setting [5]); 85 nM in the assay with MCF7 (setting [4]); 73 nM at recombinant human ACC1.

Regarding `CCCOC1CCC2(CC1)OC(=O)C(c1cc(-c3ccc(Cl)cc3)c(C)cc1C)=C2O` (stereo not shown) [2-47, 3-(4′-chloro-4,6-dimethylbiphenyl-3-yl)-4-hydroxy-8-propoxy-1-oxaspiro[4.5]dec-3-en-2-one], the concentration for half-maximal inhibition (IC50) is 389 nM in assay [1]; 453 nM in assay [2]; 402 nM in assay [3] (Assay B1, ADP-Glo, read-out: ACC 1 (=B1) IC50); 302 nM with MCF7 (MCF7 cells); 592 nM at recombinant human ACC1.

On to `CO[C@H]1CC[C@]2(CC1)NC(=O)C(c1cc(-c3ccc(Cl)c(F)c3)ccc1Cl)=C2O` [1-103, (5s,8s)-3-(4,4′-Dichloro-3′-fluorobiphenyl-3-yl)-4-hydroxy-8-methoxy-1-azaspiro[4.5]dec-3-en-2-one], for which the IC50 in assay [1] was found to be 4260 nM; in assay [2], 1180 nM; in assay [3], 102 nM; in the assay on MCF7 (setting [4]), 119 nM; on recombinant human ACC1 it was 151 nM.

As to `CCO[C@H]1CC[C@]2(CC1)NC(=O)C(c1cc(-c3ccc(Cl)cc3)ccc1C)=C2O` [1-146, (5s,8s)-3-(4′-Chloro-4 methylbiphenyl-3-yl)-8-ethoxy-4-hydroxy-1-azaspiro[4.5]dec-3-en-2-one], the half-inhibitory concentration (IC50) in assay [1] was 679 nM; in assay [2], 455 nM; in assay [3] (setting [5]) it was 115 nM; with MCF7 (setting [4]), 47 nM; on recombinant human ACC1 it was 197 nM.

As to `Cc1ccc(-c2ccc(Cl)c(F)c2)cc1C1=C(O)[C@]2(CC[C@H](C(F)(F)F)CC2)NC1=O` [1-90, (5s,8s)-3-(4′-Chloro-3′-fluoro-4-methylbiphenyl-3-yl)-4-hydroxy-8-(trifluoromethyl)-1-azaspiro[4.5]dec-3-en-2-one], the IC50 in assay [1] came to 595 nM; in assay [2], 331 nM; in assay [3] (setting [5]), 63 nM; on recombinant human ACC1, 143 nM.

On to `CC1CCC2(CC1)NC(=O)C(c1cc(-c3ccc(Cl)cc3)ccc1Cl)=C2O` (stereo not shown) [1-139, 3-(4,4′-Dichlorobiphenyl-3-yl)-4-hydroxy-8-methyl-1-azaspiro[4.5]dec-3-en-2-one], for which the concentration for half-maximal inhibition (IC50) in assay [1] worked out at 4550 nM; in assay [2] it was 605 nM; in assay [3] it was 153 nM; with MCF7 (setting [4]) it was 70 nM; at recombinant human ACC1 it was 280 nM.

As for `Cc1ccc(-c2ccc(Cl)c(F)c2)c(C)c1C1=C(O)[C@]2(CC[C@](O)(C(F)(F)F)CC2)NC1=O` [1-126, (5r,8r)-3-(4′-Chloro-3′-fluoro-2,4-dimethylbiphenyl-3-yl)-4,8-dihydroxy-8-(trifluoromethyl)-1-azaspiro[4.5]dec-3-en-2-one], the concentration for half-maximal inhibition (IC50) in assay [1] was determined as 12400 nM; in assay [2] it was 6370 nM; in assay [3] (setting [5]), 204 nM; with MCF7 (setting [4]), 594 nM; on recombinant human ACC1, 300 nM.

On to `Cc1cc(F)c(-c2ccc(Cl)cc2)cc1C1=C(O)[C@]2(CC[C@](O)(C(F)(F)C(F)(F)F)CC2)NC1=O` [1-131, (5r,8r)-3-(4′-Chloro-6-fluoro-4-methylbiphenyl-3-yl)-4,8-dihydroxy-8-(pentafluoroethyl)-1-azaspiro[4.5]dec-3-en-2-one], for which the IC50 in assay [1] turned out to be 5620 nM; in assay [2], 7620 nM; in assay [3] (setting [5]), 98 nM; in the assay on MCF7 (setting [4]), 60 nM; on recombinant human ACC1, 266 nM.

For `CC(C)[C@H]1CC[C@]2(CC1)NC(=O)C(c1cc(-c3ccc(Cl)cc3)ccc1Cl)=C2O` [1-141, (5s,8s)-3-(4,4′-Dichlorobiphenyl-3-yl)-4-hydroxy-8-isopropyl-1-azaspiro[4.5]dec-3-en-2-one], the IC50 in assay [1] came out at 1380 nM; in assay [2] it was 625 nM; in assay [3] it was 161 nM; with MCF7 (setting [4]), 79 nM; on recombinant human ACC1, 247 nM.

As for `Cc1cc(C)c(-c2ccc(Cl)cc2)cc1C1=C(O)C2(CCC(C(F)(F)F)CC2)NC1=O` (stereo not shown) [1-97, 3-(4′-Chloro-4,6-dimethylbiphenyl-3-yl)-4-hydroxy-8 (trifluoromethyl)-1-azaspiro[4.5]dec-3-en-2-one], the IC50 in assay [1] came to 269 nM; in assay [2] it was 138 nM; in assay [3], 1110 nM; with MCF7 (setting [4]), 155 nM; at recombinant human ACC1 it was 1940 nM.

Turning to `CO[C@H]1CC[C@]2(CC1)NC(=O)C(c1cc(-c3ccc(F)c(F)c3)ccc1Cl)=C2O` [1-104, (5s,8s)-3-(4 Chloro-3′,4′-difluorobiphenyl-3-yl)-4-hydroxy-8-methoxy-1-azaspiro[4.5]dec-3-en-2-one], the 50% inhibitory concentration (IC50) in assay [1] is more than 20000 nM; in assay [2] it was 17900 nM; in assay [3], 270 nM; in the assay on MCF7 (setting [4]), 455 nM; on recombinant human ACC1 it was 329 nM.

Regarding `Cc1ccc(-c2ccc(F)c(F)c2)cc1C1=C(O)[C@]2(CC[C@H](C)CC2)NC1=O` [1-145, (5s,8s)-3-(3′,4′-Difluoro-4-methylbiphenyl-3-yl)-4-hydroxy-8-methyl-1-azaspiro[4.5]dec-3-en-2-one], the IC50 in assay [2] is 3310 nM; in the assay on MCF7 (setting [4]), 273 nM; on recombinant human ACC1, 194 nM.

As to `Cc1c(F)cc(-c2ccc(Cl)cc2)cc1C1=C(O)[C@]2(CC[C@H](C(F)(F)F)CC2)NC1=O` [1-91, (5s,8s)-3-(4′-Chloro 5 fluoro 4-methylbiphenyl-3-yl)-4-hydroxy-8-(trifluoromethyl)-1-azaspiro[4.5]dec-3-en-2-one], the IC50 in assay [1] came to 4990 nM; in assay [2], 5010 nM; in assay [3], 266 nM; at recombinant human ACC1, 302 nM.

Consider `CCc1cc(C)cc(Br)c1C1=C(O)C2(CCCCC2)NC1=O` [V-4, reference compound], for which the figures for the IC50 (in assay [2]; at recombinant human ACC1) were more than 20000 nM and 5400 nM, respectively.

Regarding `O=C1N[C@]2(CC[C@@H](C(F)(F)F)CC2)C(O)=C1c1cc(-c2ccc(Cl)c(F)c2)ccc1Cl` [1-92, (5s,8s)-3-(4,4′-Dichloro-3′-fluorobiphenyl-3-yl)-4-hydroxy-8-(trifluoromethyl)-1-azaspiro[4.5]dec-3-en-2-one], the IC50 came to 1660 nM in assay [1], 1450 nM in assay [2], 72 nM in assay [3] and 226 nM at recombinant human ACC1.
